According to PubChem BioAssay (NCI):
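Following 48 hours of exposure in 96-well plates, responses at five concentrations were used to interpolate endpoints linearly. GI50 marks 50% less growth. TGI marks complete inhibition of growth.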

Columns and labels:
Experiment in all cases: inhibition of tumour cell growth, NCI panel, 48 h
SNB-19 CNS = system: SNB-19 CNS
UO-31 renal = system: UO-31 renal
SR leukemia = system: SR leukemia
MOLT-4 leukemia = system: MOLT-4 leukemia
SF-295 CNS = system: SF-295 CNS
NCI-H522 lung = system: NCI-H522 lung
DU-145 prostate = system: DU-145 prostate
MALME-3M melanoma = system: MALME-3M melanoma
SF-539 CNS = system: SF-539 CNS
HCT-116 colon = system: HCT-116 colon
HT29 colon = system: HT29 colon
HCT-15 colon = system: HCT-15 colon
NCI/ADR-RES ovarian = system: NCI/ADR-RES ovarian
SK-MEL-2 melanoma = system: SK-MEL-2 melanoma
ACHN renal = system: ACHN renal
SN12C renal = system: SN12C renal
MDA-MB-435 = system: MDA-MB-435
TK-10 renal = system: TK-10 renal
OVCAR-3 ovarian = system: OVCAR-3 ovarian
PC-3 prostate = system: PC-3 prostate
SK-MEL-5 melanoma = system: SK-MEL-5 melanoma
CCRF-CEM leukemia = system: CCRF-CEM leukemia
K-562 leukemia = system: K-562 leukemia
SNB-75 CNS = system: SNB-75 CNS
MDA-MB-231 breast = system: MDA-MB-231 breast
CAKI-1 renal = system: CAKI-1 renal
SK-MEL-28 melanoma = system: SK-MEL-28 melanoma
HL-60(TB) leukemia = system: HL-60(TB) leukemia
M14 melanoma = system: M14 melanoma
OVCAR-5 ovarian = system: OVCAR-5 ovarian
HOP-92 NSCLC = system: HOP-92 NSCLC
UACC-62 melanoma = system: UACC-62 melanoma
HCC-2998 colon = system: HCC-2998 colon
SK-OV-3 ovarian = system: SK-OV-3 ovarian

Work on `NCCCn1c2c(c3ccc([N+](=O)[O-])cc3c1=O)C(=O)c1cc(F)ccc1-2` yielded a GI50 (SNB-19 CNS) of 58.9 nM, a TGI (SNB-19 CNS) of 1520 nM and a GI50 (UO-31 renal) of 32.4 nM. For the same compound, the TGI (UO-31 renal) was 190 nM, the GI50 (SR leukemia) was < 10 nM and the TGI (SR leukemia) was 20.5 nM. The GI50 (MOLT-4 leukemia) was < 10 nM, the GI50 (SF-295 CNS) was 15.7 nM and the TGI (SF-295 CNS) was 142 nM. The GI50 (NCI-H522 lung) was < 10 nM, the TGI (NCI-H522 lung) was 116 nM and the GI50 (DU-145 prostate) was < 10.4 nM. It also gave a TGI (DU-145 prostate) of 451 nM, a GI50 (MALME-3M melanoma) of 27.5 nM and a TGI (MALME-3M melanoma) of 161 nM. For the same compound, the GI50 (SF-539 CNS) was 28.8 nM, the TGI (SF-539 CNS) was 101 nM and the GI50 (HCT-116 colon) was < 11.2 nM. For the same compound, the TGI (HCT-116 colon) was 134 nM, the GI50 (HT29 colon) was < 15.3 nM and the TGI (HT29 colon) was 515 nM. For the same compound, the GI50 (HCT-15 colon) was 59.5 nM, the TGI (HCT-15 colon) was 647 nM and the GI50 (NCI/ADR-RES ovarian) was 41.2 nM. For the same compound, the TGI (NCI/ADR-RES ovarian) was 1200 nM, the GI50 (SK-MEL-2 melanoma) was 326 nM and the TGI (SK-MEL-2 melanoma) was 1050 nM. The GI50 (ACHN renal) was 24.1 nM, the TGI (ACHN renal) was 142 nM and the GI50 (SN12C renal) was 43.9 nM. For the same compound, the TGI (SN12C renal) was 805 nM, the GI50 (MDA-MB-435) was 76.2 nM and the TGI (MDA-MB-435) was 923 nM. The GI50 (TK-10 renal) was 372 nM, the TGI (TK-10 renal) was 2700 nM and the GI50 (OVCAR-3 ovarian) was 31 nM. For the same compound, the TGI (OVCAR-3 ovarian) was 152 nM, the GI50 (PC-3 prostate) was 39.8 nM and the TGI (PC-3 prostate) was 1630 nM. The GI50 (SK-MEL-5 melanoma) was 60.3 nM, the TGI (SK-MEL-5 melanoma) was 199 nM and the GI50 (CCRF-CEM leukemia) was < 14.4 nM. The TGI (CCRF-CEM leukemia) was 779 nM, the GI50 (K-562 leukemia) was < 20.5 nM and the TGI (K-562 leukemia) was 331 nM. The GI50 (SNB-75 CNS) was 23 nM, the TGI (SNB-75 CNS) was 268 nM and the GI50 (MDA-MB-231 breast) was 422 nM. The TGI (MDA-MB-231 breast) was 1240 nM, the GI50 (CAKI-1 renal) was 49.8 nM and the TGI (CAKI-1 renal) was 266 nM. For the same compound, the GI50 (SK-MEL-28 melanoma) was 229 nM, the TGI (SK-MEL-28 melanoma) was 1540 nM and the GI50 (HL-60(TB) leukemia) was < 16 nM. It also gave a TGI (HL-60(TB) leukemia) of 166 nM, a GI50 (M14 melanoma) of 29.7 nM and a TGI (M14 melanoma) of 104 nM. The GI50 (OVCAR-5 ovarian) was 122 nM, the TGI (OVCAR-5 ovarian) was 710 nM and the GI50 (HOP-92 NSCLC) was 90.2 nM. It also gave a TGI (HOP-92 NSCLC) of 845 nM, a GI50 (UACC-62 melanoma) of 36 nM and a TGI (UACC-62 melanoma) of 165 nM. For the same compound, the GI50 (HCC-2998 colon) was 36.7 nM, the TGI (HCC-2998 colon) was 233 nM and the GI50 (SK-OV-3 ovarian) was 13.9 nM. It also gave a TGI (SK-OV-3 ovarian) of 349 nM.
